This data set deals with T1, TrxR (rat liver thioredoxin reductase) (Rattus norvegicus, UniProt O89049).
T1 sequence (O89049 1-499): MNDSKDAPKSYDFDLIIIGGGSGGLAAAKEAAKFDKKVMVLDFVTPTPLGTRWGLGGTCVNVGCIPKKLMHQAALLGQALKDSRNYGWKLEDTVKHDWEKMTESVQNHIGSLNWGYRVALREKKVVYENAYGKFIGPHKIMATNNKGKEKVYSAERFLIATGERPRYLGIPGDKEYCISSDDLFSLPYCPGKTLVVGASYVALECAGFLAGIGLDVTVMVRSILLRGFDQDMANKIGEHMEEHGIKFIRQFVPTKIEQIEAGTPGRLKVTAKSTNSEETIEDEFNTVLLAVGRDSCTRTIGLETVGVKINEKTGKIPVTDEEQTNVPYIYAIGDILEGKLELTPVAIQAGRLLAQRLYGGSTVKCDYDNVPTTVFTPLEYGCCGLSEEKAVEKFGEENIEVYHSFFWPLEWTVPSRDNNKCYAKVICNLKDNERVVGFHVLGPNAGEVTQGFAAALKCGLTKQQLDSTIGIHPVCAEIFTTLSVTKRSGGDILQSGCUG
Description: DTNB reduction, absorbance at […] nm. The class given is biochemical.

SMILES strings stand for the structures.

Consider `CC(C)(C)OC(=O)n1ccc2c[c]([Au-][P+](C3CCCCC3)(C3CCCCC3)C3CCCCC3)ccc21` [compound 4, [5-{Tricyclohexylphosphine gold(I)}-tert-butyl 1H-indole-1-carboxylate]], for which the inhibition at 40 µM was determined as 39%.

Usually inhibition stands for the share of the control response that was lost under treatment.
